Laboratory results as given in patent US20220110985A1, “NUTRITIONAL COMPOSITION COMPRISING 2'FUCOSYLLACTOSE AND 3'GALACTOSYLLACTOSE” (N.V. Nutricia, priority 2019, published 2022).

Tests used:
Klebsiella pneumonia K2 = assay: Fecal slurry fermentation spiked with pathogens: Klebsiella; assay type: cell-based; conditions: inoculum of baby 2, spiked
Method: (§1) Anaerobic fermentation of fecal slurry samples was tested in a BioLector Pro microfluidics mini multifermentor. Faecal slurry samples were collected from breast fed infants and from formula fed infants. These faecal slurry samples were processed by adding 0.6 grams feces in 40 ml Baby Reichardt V.6 medium+mucus+Ammonium sulfate+lactate and acetate. The resulting solutions were inserted to the BioLector Pro microfluidics mini multifermentor. The test legs were supplemented with 3-GL, 2′-FL, 3′-GL+2′-FL, and GOS/FOS. The control leg was supplemented with sterile water.
(§2) In addition the test legs were supplemented with Clostridium difficile C153 (difficile agar), Salmonella enteriditis S29 (XLD agar), Cronobacter sakasakii E71 (chromogenic agar) or Klebsiella pneumonia K2 (Simons citrate inositol agar). For every NDO and for the control also a pathogen free culture was prepared.
(§3) A 32 well plate that can handle low pH was used. The wells of this plate were filled with fecal solution. 2.5% (w/v) of the different sterile carbohydrate solutions (3′-GL, 2′-FL, 2′-FL/3′-GL (2.0+0.5%). and Glucose were added to the fecal slurry according to a template. […]

[1] = system: infant intestinal microbiota; assay: quad-SHIME infant intestinal microbiota model (SCFA, glycoprofile); assay type: cell-based, human infant faecal inoculum; set-up: Butyrate (Mean ± SD) / Iso-Butyrate (Mean ± SD) / Acetate (Mean ± SD): unit not given here; conditions: distal colon
Source text: A faecal sample from a healthy infant born via C-section, exclusively breastfed with no history of antibiotic usage, was used as inoculum to simulate the infant intestinal microbiota in the colon compartments of a quad-SHIME®—a dynamic model of the human gastrointestinal tract comprises 4 SHIME® units running in parallel and each SHIME® unit is composed of 3 reactors simulating the stomach and small intestine, proximal and distal colons.

[2] = system: Salmonella enteriditis S29; assay: Fecal slurry fermentation spiked with pathogens: Salmonella; assay type: cell-based
Method: as §1, §2, §3

Row | Compound | Klebsiella growth (Klebsiella pneumonia K2) | Acetate (Mean ± SD) ([1]; D1-D3) | Butyrate (Mean ± SD) ([1]; D1-D3) | Iso-Butyrate (Mean ± SD) ([1]; D1-D3) | Propionate (Mean ± SD) ([1]; D1-D3) | Acetate (Mean ± SD) ([1]; D4-D11) | Butyrate (Mean ± SD) ([1]; D4-D11) | Iso-Butyrate (Mean ± SD) ([1]; D4-D11) | Propionate (Mean ± SD) ([1]; D4-D11) | Acetate (Mean ± SD) ([1]; D12-D15) | Butyrate (Mean ± SD) ([1]; D12-D15) | Iso-Butyrate (Mean ± SD) ([1]; D12-D15) | Propionate (Mean ± SD) ([1]; D12-D15) | butyrate generation, in words ([1]; relative to control and scGOS/lcFOS groups) | Salmonella growth ([2]; inoculum of baby 1, spiked) | Salmonella growth ([2]; inoculum of baby 2, spiked)
1 | Gal (beta 1-3)-Gal (beta 1-4)-Glc [3′-GL] | most inhibited | – | – | – | – | – | – | – | – | – | – | – | – | – | – | –
2 | C[C@@H]1O[C@@H](O[C@H]2[C@H](O[C@H]3[C@H](O)[C@@H](O)C(O)O[C@@H]3CO)O[C@H](CO)[C@H](O)[C@@H]2O)[C@@H](O)[C@H](O)[C@@H]1O (stereo partly drawn) [2′-FL, α-L-Fuc-(1→2)-β-D-Gal-(1→4)-D-Glc] | – | 38.67 ± 10.25 | 0 ± 0 | 0 ± 0 | 10.17 ± 3.01 | 26.22 ± 0.97 | 0.74 ± 0.49 | 0.68 ± 0.75 | 6.58 ± 0.49 | 22.96 ± 1.04 | 0.99 ± 0.09 | 0.93 ± 0.21 | 6.13 ± 0.63 | generated earlier in the distal colon and at a higher concentration | most restricted | most restricted
